In one data set the target is T1, serotonin transporter (Rattus norvegicus, UniProt P31652).
T1 construct: displace ^3H-paroxetine from male rat frontal cortical membranes; from tissue; host or cells: male rat frontal cortical membranes
As to the kind of experiment: 3H-paroxetine displacement from rat frontal cortical membranes (serotonin transporter affinity). Conditions: 3H-paroxetine, male rat frontal cortical membranes; for Ki: read-out: 5-HT Transporter Affinity Ki. It is filed as binding.

The target of the next data set is T2, human 5HT1A receptors (Homo sapiens, UniProt P08908).
T2 construct: expressed in transfected cells; host or cells: CHO cells
T2 sequence (P08908 1-422): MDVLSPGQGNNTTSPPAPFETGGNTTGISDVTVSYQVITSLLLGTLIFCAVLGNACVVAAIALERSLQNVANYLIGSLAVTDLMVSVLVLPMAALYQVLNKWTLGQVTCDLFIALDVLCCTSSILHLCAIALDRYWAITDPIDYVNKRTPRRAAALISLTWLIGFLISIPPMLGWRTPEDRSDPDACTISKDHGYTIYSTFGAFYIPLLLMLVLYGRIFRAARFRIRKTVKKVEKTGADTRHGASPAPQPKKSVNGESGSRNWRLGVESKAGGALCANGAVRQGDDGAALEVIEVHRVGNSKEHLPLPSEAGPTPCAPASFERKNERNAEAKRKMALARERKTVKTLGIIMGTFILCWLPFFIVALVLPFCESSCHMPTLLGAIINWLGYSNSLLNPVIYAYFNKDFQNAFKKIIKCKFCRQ
As to the kind of experiment: [3H] 8-OH-DPAT displacement from 5HT1A receptor in stably transfected CHO cells. The class given is binding. Conditions: CHO cells with human 5HT1A; for Ki: read-out: 5HT1A Receptor Affinity Ki. The text has this: High affinity for the serotonin 5HT1A receptor was established by testing the claimed compound's ability to displace [^3H] 8-OH-DPAT (dipropylamino-tetralin) from the 5HT1A serotonin receptor following a modification of the procedure of Hall et al., J. Neurochem. 44, 1685 (1985) which utilizes CHO cells stably transfected with human 5HT1A receptors.

In data set [1] the target is T3, cloned human 5HT1A receptors (Homo sapiens, UniProt P08908).
T3 construct: expressed in transfected cells
T3 sequence (P08908 1-422): T2 sequence (P08908 1-422)
As to the kind of experiment: 35S-GTPγS binding assay, 5HT1A antagonist activity. Conditions: for 5HT1A Function Imax: maximum inhibitory effect, vs 8-OH-DPAT, unit assumed; for IC50: reversal of 8-OH-DPAT (antagonist), read-out: 5HT1A Function IC50. The class given is biochemical. As for the experimental part: Antagonist activity at 5HT1A receptors was established by using a ^35S-GTPγS binding assay similar to that used by Lazareno and Birdsall (Br. J. Pharmacol. 109:1120, 1993), in which the test compound's ability to affect the binding of ^35S-GTPγS to membranes containing cloned human 5HT1A receptors was determined. Agonists produce an increase in binding whereas antagonists produce no increase but rather reverse the effects of the standard agonist 8-OH-DPAT. The test compound's maximum inhibitory effect is represented as the Imax, while its potency is defined by the IC50.
Background: Binding of GTPγS marks nucleotide exchange on a G protein.

The values below come from patent US7153849B2, “Antidepressant arylpiperazine derivatives of hetrocycle-fused benzodioxans” (Wyeth, priority 2002, dated 2006).

By Ki is commonly meant a measure of affinity in units of concentration, obtained from inhibition or displacement. As a reminder, the IC50 is the concentration that gives 50% inhibition. As a reminder, the melting point is the temperature, or range, at which the solid turns liquid.

T1 sequence (P31652 whole entry): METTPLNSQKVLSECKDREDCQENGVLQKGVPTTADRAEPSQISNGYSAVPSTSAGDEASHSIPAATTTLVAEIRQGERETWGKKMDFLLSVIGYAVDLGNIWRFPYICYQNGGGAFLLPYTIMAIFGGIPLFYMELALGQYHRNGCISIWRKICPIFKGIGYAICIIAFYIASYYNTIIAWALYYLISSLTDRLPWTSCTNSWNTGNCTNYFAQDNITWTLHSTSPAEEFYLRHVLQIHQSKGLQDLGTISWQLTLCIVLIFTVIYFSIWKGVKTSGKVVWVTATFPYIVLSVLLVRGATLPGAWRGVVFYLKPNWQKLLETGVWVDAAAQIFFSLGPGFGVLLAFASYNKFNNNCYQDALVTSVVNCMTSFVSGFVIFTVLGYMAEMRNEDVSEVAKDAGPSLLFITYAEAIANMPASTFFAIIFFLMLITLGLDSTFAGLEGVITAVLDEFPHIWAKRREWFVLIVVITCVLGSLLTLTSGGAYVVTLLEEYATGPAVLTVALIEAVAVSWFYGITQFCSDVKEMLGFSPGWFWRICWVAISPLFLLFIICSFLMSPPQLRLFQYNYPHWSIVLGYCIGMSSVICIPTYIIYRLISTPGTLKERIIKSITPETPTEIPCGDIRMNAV

Turning to `Cc1ccc2c3c(ccc2n1)OC[C@H](CN1CCN(c2cccc(Cl)c2)CC1)O3` [Example 1, (2S)-2-{[4-(3-chlorophenyl)piperazin-1-yl]methyl}-8-methyl-2,3-dihydro[1,4]dioxino[2,3-f]quinoline], the melting point was 110 to 112 °C. For the same compound, the Ki at serotonin transporter amounted to 15.7 nM. Moreover, the Ki on human 5HT1A receptors is 15.9 nM. Further, in data set [1], the 5HT1A Function Imax came out at 100% and the IC50 came out at 4560 nM.

In turn, `Cc1ccc2c3c(ccc2n1)OC[C@H](CN1CCN(c2cccc(C)c2C)CC1)O3` [Example 10, (2S)-2-{[4-(2,3-dimethylphenyl)piperazin-1-yl]methyl}-8-methyl-2,3-dihydro[1,4]dioxino[2,3-f]quinoline] registered a melting point of 112 to 113 °C. Further, the Ki on serotonin transporter stood at 88.5 nM. The Ki at human 5HT1A receptors worked out at 82.5 nM. Further, in data set [1], the 5HT1A Function Imax amounted to 98% and the IC50 is 403 nM.

In turn, `COc1cccc(N2CCN(C[C@H]3COc4ccc5nc(C)ccc5c4O3)CC2)c1` [Example 5, (2S)-2-{[4-(3-methoxyphenyl)piperazin-1-yl]methyl}-8-methyl-2,3-dihydro[1,4]dioxino[2,3-f]quinoline] registered a melting point of 90 to 91 °C. The Ki on serotonin transporter was 35.5 nM. Besides, the “5HT1A Receptor Affinity, % @ 1 μM” value at human 5HT1A receptors is given as 80% @ 1 μM. Moreover, in data set [1], the 5HT1A Function Imax was determined as 84% and the IC50 amounted to 1720 nM.

`COc1ccc(N2CCN(C[C@H]3COc4ccc5nc(C)ccc5c4O3)CC2)cc1` [Example 6, (2S)-2-{[4-(4-methoxyphenyl)piperazin-1-yl]methyl}-8-methyl-2,3-dihydro[1,4]dioxino[2,3-f]quinoline] came in with a melting point of 164 to 165 °C. In addition, on serotonin transporter, the “5-HT Transporter Affinity, % @ 1 μM” value is listed as 0% @ 1 μM. The “5HT1A Receptor Affinity, % @ 1 μM” value on human 5HT1A receptors is 81% A1 μM. Moreover, in data set [1], the 5HT1A Function Imax came to 37% and the IC50 was found to be 3940 nM.

The compound `Cc1ccc2c3c(ccc2n1)OC[C@H](CN1CCN(c2ccc4cc(Br)ccc4n2)CC1)O3` [Example 27, (2S)-2-{[4-(6-Bromoquinolin-2-yl)piperazin-1-yl]methyl}-8-methyl-2,3-dihydro[1,4]dioxino[2,3-f]quinoline] gave a melting point of 153 to 154 °C. In addition, the Ki at serotonin transporter was 101 nM. Further, the Ki on human 5HT1A receptors turned out to be 17.1 nM. Further, in data set [1], the 5HT1A Function Imax was found to be 82% and the IC50 was 2410 nM.

Turning to `Cc1ccc2c3c(ccc2n1)OC[C@H](CN1CCN(c2ccc(C)c(C)c2)CC1)O3` [Example 11, (2S)-2-{[4-(3,4-dimethylphenyl)piperazin-1-yl]methyl}-8-methyl-2,3-dihydro[1,4]dioxino[2,3-f]quinoline], the melting point is 118 to 120 °C. Besides, on serotonin transporter, the Ki was 85.5 nM. Further, the Ki at human 5HT1A receptors came out at 18.2 nM. Also, in data set [1], the 5HT1A Function Imax came out at 84% and the IC50 amounted to 345 nM.

Take `Cc1ccc2c3c(ccc2n1)OC[C@H](CN1CCN(c2ccc4ccccc4n2)C[C@H]1C)O3` [Example 21, (2S)-8-methyl-2-{[(2R)-2-methyl-4-quinolin-2-ylpiperazin-1-yl]methyl}-2,3-dihydro[1,4]dioxino[2,3-f]quinoline]: the melting point was 78 to 82 °C. For the same compound, the Ki on serotonin transporter was 32.8 nM. The Ki at human 5HT1A receptors is 5.53 nM. Also, in data set [1], the 5HT1A Function Imax was 83.5% and the IC50 was 867 nM.

Compound `COc1ccccc1N1CCN(C[C@H]2COc3ccc4nc(C)ccc4c3O2)CC1` [Example 4, (2S)-2-{[4-(2-methoxyphenyl)piperazin-1-yl]methyl}-8-methyl-2,3-dihydro[1,4]dioxino[2,3-f]quinoline] showed a melting point of 44 to 47 °C. In addition, the “5-HT Transporter Affinity, % @ 1 μM” value at serotonin transporter amounted to 34% @ 1 μM. The “5HT1A Receptor Affinity, % @ 1 μM” value at human 5HT1A receptors is recorded as 95% @ 1 μM. In data set [1], the 5HT1A Function Imax stood at 87% and the IC50 turned out to be 994 nM.

Consider `Cc1ccc2c3c(ccc2n1)OC[C@H](CN1CCN(c2cccc(C(F)(F)F)c2)CC1)O3` [Example 8, (2S)-8-methyl-2-[4-(3-trifluoromethyl-phenyl)piperazin-1-ylmethyl]-2,3-dihydro[1,4]dioxine[2,3-f]quinoline], for which the melting point lay in the range of 123 to 124 °C. Further, the Ki at serotonin transporter turned out to be 21.6 nM. Besides, on human 5HT1A receptors, the Ki was 31.4 nM. Further, in data set [1], the 5HT1A Function Imax is 100% and the IC50 came to 3110 nM.

In the case of `COc1cccc2c(N3CCN(C[C@H]4COc5ccc6nc(C)ccc6c5O4)CC3)coc12` [Example 16, (2S)-2-{[4-(7-methoxy-1-benzofuran-3-yl)-1-piperazinyl]methyl}-8-methyl-2,3-dihydro[1,4]dioxino[2,3-f]quinoline], the melting point was 56 °C. The Ki at serotonin transporter was 266 nM. At human 5HT1A receptors, the Ki was found to be 28.5 nM.

Consider `Cc1ccc2c3c(ccc2n1)OC[C@H](CN1CCN(c2ccc4ccccc4n2)C[C@@H]1C)O3` [Example 19, (2S)-8-methyl-2-{[(2S)-2-methyl-4-quinolin-2-ylpiperazin-1-yl]methyl}-2,3-dihydro[1,4]dioxino[2,3-f]quinoline], for which the melting point fell in the range of 141 to 144 °C. In addition, the Ki on serotonin transporter turned out to be 123 nM. Besides, the Ki on human 5HT1A receptors came to 167 nM. In data set [1], the 5HT1A Function Imax was 90% and the IC50 is 3000 nM.
